Drawing on patent publication US12590096B2, “Imidazo[2,1-f][1,2,4]triazin-4-amine as TLR8 agonists” (BeOne Medicines | GmbH, priority 2019, dated 2026), this text covers EC50 for 23 molecules.

The target of one experiment is T1, human TLR 8 protein in HEK-blue hTLR 8 tool cell line (Homo sapiens, UniProt Q9NR97).
T1 construct: expressed in transfected cells; host or cells: HEK293 (HEK-Blue hTLR8)
T1 sequence (Q9NR97 27-1041): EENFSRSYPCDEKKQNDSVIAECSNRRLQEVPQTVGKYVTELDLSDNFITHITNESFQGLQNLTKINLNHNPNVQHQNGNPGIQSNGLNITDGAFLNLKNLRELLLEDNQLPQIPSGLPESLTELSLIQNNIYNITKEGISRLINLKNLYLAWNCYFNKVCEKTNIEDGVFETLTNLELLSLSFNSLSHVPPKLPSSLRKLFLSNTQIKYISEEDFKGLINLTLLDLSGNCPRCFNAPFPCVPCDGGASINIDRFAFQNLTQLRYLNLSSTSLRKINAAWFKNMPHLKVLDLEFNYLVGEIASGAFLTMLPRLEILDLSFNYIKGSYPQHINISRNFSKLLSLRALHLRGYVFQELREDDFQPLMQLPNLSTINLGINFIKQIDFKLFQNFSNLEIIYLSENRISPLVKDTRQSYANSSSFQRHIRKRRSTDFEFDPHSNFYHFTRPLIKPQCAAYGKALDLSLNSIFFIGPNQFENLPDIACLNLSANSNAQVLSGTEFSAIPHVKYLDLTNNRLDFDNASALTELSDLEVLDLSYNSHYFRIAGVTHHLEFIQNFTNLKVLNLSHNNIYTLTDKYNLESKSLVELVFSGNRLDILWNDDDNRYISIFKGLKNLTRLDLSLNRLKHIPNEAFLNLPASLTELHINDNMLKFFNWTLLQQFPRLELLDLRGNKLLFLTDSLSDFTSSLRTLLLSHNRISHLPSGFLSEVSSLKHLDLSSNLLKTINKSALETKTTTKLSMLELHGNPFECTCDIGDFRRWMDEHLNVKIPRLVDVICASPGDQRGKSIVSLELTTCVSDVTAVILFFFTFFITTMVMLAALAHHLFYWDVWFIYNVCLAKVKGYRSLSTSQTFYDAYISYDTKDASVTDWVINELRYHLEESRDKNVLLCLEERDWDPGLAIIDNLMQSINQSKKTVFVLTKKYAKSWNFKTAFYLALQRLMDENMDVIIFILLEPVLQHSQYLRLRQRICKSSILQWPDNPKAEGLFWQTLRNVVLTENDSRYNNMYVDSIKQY
The experiment in a line: TLR8 stimulation determined by HEK-Blue Detection (NF-κB/SEAP reporter). As to conditions: HEK-Blue hTLR8 cells, 16 h incubation, relative to maximum activation by Resiquimod or motolimod; read-out: EC50 (nmol). It is filed as cell-based. The source says: TLR8 Stimulation Determined by HEK-Blue Detection
This assay was designed to study the stimulation of human TLR 8 protein in HEK-blue hTLR 8 tool cell line by monitoring the activation of NF-κB. HEK-blue hTLR8 cells were obtained by co-transfection of hTLR8 gene and optimized secretory embryonic alkaline phosphatase (SEAP) reporter gene into HEK293 cells. SEAP reporter gene was put under the control of […] minimal promoter fused with five NF-κB and AP-1-binding sites. NF-κB and AP-1 were activated by stimulation with TLR 8 ligand, thus inducing the expression of SEAP. The level of SEAP can be easily determined by HEK-Blue Detection (a cell culture medium that allows real-time detection of SEAP). HEK-Blue Detection comprises all nutrients needed for cell growth and specific SEAP color substrates. The hydrolysis of substrate by SEAP produces purple/blue color which can be measured by spectrophotometer.
When growing to 50-80% confluence, HEK-Blue hTLR7/8 cells were plated into 96-well plates (costar 3599) at a density of 40,000 cells/well. Then, the compound serially diluted at 10 points with a final concentration ranging from 1 nM to 10 μm in 0.1% DMSO/HEK-Blue Detection was added. The plates were then incubated in 5% CO2 at 37° C. for 16 h. Optical density at 620-655 nm was read on BMG PHERAstar FSX instrument. The EC50 of each compound was determined by calculating the maximum activation percentage identified using Resiquimod or motolimod.
The EC50 of the tested compound of the present invention is as follows.
In general, EC50 refers to the concentration needed to bring the measured effect to its halfway point. Regarding `CCC[C@H](C)Oc1nc(N)c2ncc(CC3CCN(C4CCNCC4)CC3)n2n1` [Compound B23, (S)-7-([1,4′-bipiperidin]-4-ylmethyl)-2-(pent-2-yloxy)imidazo[2,1-f][1,2,4]triazin-4-amine], the EC50 was 0.143 µM. Consider `CCCCOc1nc(N)c2ncc(CC3CCNCC3)n2n1` [Compound B1, 2-butoxy-7-(piperidin-4-ylmethyl)imidazo[2,1-f][1,2,4]triazin-4-amine], for which the EC50 stood at 0.051 µM.

With `CCCC(C)Oc1nc(N)c2ncc(CN3CCNC[C@@H]3C)n2n1` (stereo partly drawn) [Compound B17, 7—(((S)-2-methylpiperazin-1-yl)methyl)-2-(pent-2-yloxy)imidazo[2,1-f][1,2,4]triazin-4-amine], the EC50 worked out at 3.95 µM. As for `CCCC(Cc1ccccc1)Oc1nc(N)c2ncc(CC3CCNCC3)n2n1` (centres unmarked) [Compound B45, 2-((1-phenylpent-2-yl)oxy)-7-(piperidin-4-ylmethyl)imidazo[2,1-f][1,2,4]triazin-4-amine], the EC50 came to 0.531 µM.

As for `CCC[C@H](C)Oc1nc(N)c2ncc(C=C3CCNCC3)n2n1` [Compound B35, (S)-2-(pent-2-yloxy)-7-(piperidin-4-ylidenemethyl)imidazo[2,1-f][1,2,4]triazin-4-amine], the EC50 turned out to be 0.921 µM. For the molecule `CCC[C@H](C)Oc1nc(N)c2ncc(C[C@H]3[C@@H]4CNC[C@@H]43)n2n1` [Compound B33, 7-(((1R,5S,6s)-3-azabicyclo[3.1.0]hex-6-yl)methyl)-2-(((S)-pent-2-yl)oxy)imidazo[2,1-f][1,2,4]triazin-4-amine], the EC50 worked out at 0.766 µM.

On to `CCCC(C)Oc1nc(N)c2ncc(CC3CCOCC3)n2n1` (centres unmarked) [Compound B36, 2-(pent-2-yloxy)-7-((tetrahydro-2H-pyran-4-yl)methyl)imidazo[2,1-f][1,2,4]triazin-4-amine], for which the EC50 is greater than 10 µM. On to `CCCCNc1nc(N)c2ncc(CC3CCNCC3)n2n1` [Compound B4, N2-butyl-7-(piperidin-4-ylmethyl)imidazo[2,1-f][1,2,4]triazin-2,4-diamine], for which the EC50 is 0.347 µM. Still for that read-out and setting: the same measure for `CCC[C@H](C)Oc1nc(N)c2ncc(CC3CCC(NC)CC3)n2n1` (stereo partly drawn) [Compound B31, (S)-7-((4-(methylamino)cyclohexyl)methyl)-2-(pent-2-yloxy)imidazo[2,1-f][1,2,4]triazin-4-amine]: 0.103 µM. Consider `CCC[C@H](C)Oc1nc(N)c2ncc(CC3CCN(C)CC3)n2n1` [Compound B32, (S)-7-((1-methylpiperidin-4-yl)methyl)-2-(pent-2-yloxy)imidazo[2,1-f][1,2,4]triazin-4-amine], for which the EC50 was found to be 0.022 µM. Same read-out and setting: then `CCC[C@H](C)Oc1nc(N)c2ncc(CC3CCN(CC(C)NC)CC3)n2n1` (single isomer, unassigned) [Compound B58, 7-((1-((R or S)-2-(methylamino)propyl)piperidin-4-yl)methyl)-2-(((S)-pent-2-yl)oxy)imidazo[2,1-f][1,2,4]triazin-4-amine], with 0.024 µM; and `CCCC(CO)Oc1nc(N)c2ncc(CC3CCNCC3)n2n1` (centres unmarked) [Compound B34, 2-((4-amino-7-(piperidin-4-ylmethyl)imidazo[2,1-f][1,2,4]triazin-2-yl)oxy) pentan-1-ol], with 0.225 µM; and `CCC[C@H](C)Oc1nc(N)c2ncc(CC3CCN(CC(C)NC)CC3)n2n1` (single isomer, unassigned) [Compound B59, 7-((1-((S or R)-2-(methylamino)propyl)piperidin-4-yl)methyl)-2-(((S)-pent-2-yl)oxy)imidazo[2,1-f][1,2,4]triazin-4-amine], with 0.021 µM. For the molecule `CCC[C@H](C)Oc1nc(N)c2ncc(CC3CCNC3)n2n1` (stereo partly drawn) [Compound B26, 2—(((S)-pent-2-yl)oxy)-7-(pyrrolidin-3-ylmethyl)imidazo[2,1-f][1,2,4]triazin-4-amine], the EC50 is 0.099 µM.

In the case of `CCC[C@H](C)Oc1nc(N)c2ncc(CC3CCN(CC4CCCN4)CC3)n2n1` (stereo partly drawn) [Compound B20, 2—(((S)-pent-2-yl)oxy)-7-((1-(pyrrolidin-2-ylmethyl)piperidin-4-yl)methyl)imidazo[2,1-f][1,2,4]triazin-4-amine], the EC50 was 0.558 µM. For the molecule `CCC[C@H](C)Oc1nc(N)c2ncc(CC3CCCCN3)n2n1` (stereo partly drawn) [Compound B51, 2-(((S)-pent-2-yl)oxy)-7-(piperidin-2-ylmethyl)imidazo[2,1-f][1,2,4]triazin-4-amine], the EC50 is 0.41 µM. For the molecule `Cc1cc(COc2nc(N)c3ncc(CC4CCNCC4)n3n2)no1` [Compound B41, 2-((5-methylisoxazol-3-yl)methoxy)-7-(piperidin-4-ylmethyl)imidazo[2,1-f][1,2,4]triazin-4-amine], the EC50 is greater than 10 µM. For the molecule `CCCCCc1nc(N)c2ncc(CC3CCNCC3)n2n1` [Compound B11, 2-pentyl-7-(piperidin-4-ylmethyl)imidazo[2,1-f][1,2,4]triazin-4-amine], the EC50 was determined as 1.79 µM.

Consider `CCC[C@H](C)Oc1nc(N)c2ncc(CC3CCN(C4CCNC4)CC3)n2n1` (stereo partly drawn) [Compound B13, 2—(((S)-pent-2-yl)oxy)-7-((1-(pyrrolidin-3-yl)piperidin-4-yl)methyl)imidazo[2,1-f][1,2,4]triazin-4-amine], for which the EC50 came out at 0.387 µM. With `CCCC(C)Oc1nc(N)c2ncc(CC3CCNCC3)n2n1` (centres unmarked) [Compound B2, 2-(pent-2-yloxy)-7-(piperidin-4-ylmethyl)imidazo[2,1-f][1,2,4]triazin-4-amine], the half-maximal effective concentration (EC50) was found to be 0.015 µM.

As to `CCC[C@H](CC)Oc1nc(N)c2ncc(CC3CCNCC3)n2n1` [Compound B49, (S)-2-(hex-3-yloxy)-7-(piperidin-4-ylmethyl)imidazo[2,1-f][1,2,4]triazin-4-amine], the EC50 was determined as 0.0075 µM.

Still in this experiment, the particulars now being: HEK-Blue hTLR8 cells, 16 h incubation; unit μM; read-out: EC50.
As for `CCC[C@H](C)Oc1nc(N)c2ncc(/C=C3/CCNCC3(C)C)n2n1` [Compound B52, (S)-7-((3,3-dimethylpiperidin-4-ylidene)methyl)-2-(pent-2-yloxy)imidazo[2,1-f][1,2,4]triazin-4-amine], the EC50 is greater than 10 µM. Regarding `CCC[C@H](C)Oc1nc(N)c2ncc(C=C3CC4CCC(C3)N4)n2n1` [Compound B55, 7-((8-azabicyclo[3.2.1]oct-3-ylene)methyl)-2-(((S)-pent-2-yl)oxy)imidazo[2,1-f][1,2,4]triazin-4-amine], the EC50 is greater than 10 µM.
